The values that follow come from ChEMBL document CHEMBL3045663, “Synthesis and Activity of Novel Acaricidal/Insecticidal 2, 4-Diphenyl-1, 3-oxazolines” (J Pestic Sci, 2002).

The mortality is the share of the test organisms that died. As a reminder, the LC50 is the concentration that kills 50% of the test population.

≈ marks a conversion by molar mass, not a printed value.

Format in all cases: functional
For assay [1], the system named is Plutella xylostella. Kind of assay: Insecticidal activity against Plutella xylostella (diamondback moth) in compound treated radish leaf assessed as mortality at 500 ppm.
In assay [2] the test system is Myzus persicae. The experiment in a line: Insecticidal activity against Myzus persicae (green peach aphid) in compound treated radish leaf assessed as mortality at 500 ppm.
The subject of assay [3] is Tetranychus urticae. The experiment in a line: Acaricidal activity against Tetranychus urticae (two-spotted spider mite) in compound treated kidney bean leaf assessed as larvicidal activity.
Assay [4] deals with Nephotettix cincticeps. Kind of assay: Insecticidal activity against Nephotettix cincticeps (green rice leafhopper) in compound treated rice seedlings assessed as mortality at 500 ppm.

Consider `CS(=O)(=O)c1ccc(C2COC(c3c(F)cccc3F)=N2)cc1` (stereo not drawn), for which the values for the mortality at 500 ppm in assay [1], in assay [2] and in assay [4] were 60%, 85% and 0%, respectively. In assay [3], the LC50 came out at 100 µg/mL (≈ 296 µM).
On to `CCOc1cc(C(C)(C)C)ccc1C1COC(c2c(F)cccc2F)=N1` (stereo not drawn) [ETOXAZOLE], for which the mortality at 500 ppm in assay [1], in assay [2] and in assay [4] was 100% each time. Also, the LC50 in assay [3] turned out to be 0.001 µg/mL (≈ 0.00278 µM).
Take `CCCCCCCCCCCCc1ccc(C2COC(c3c(F)cccc3F)=N2)c(F)c1` (stereo not drawn): the mortality at 500 ppm in assay [1] is 100%; in assay [2], 0%; in assay [4], 0%. Further, the LC50 in assay [3] stood at 0.01 µg/mL (≈ 0.0224 µM).
Turning to `CCOc1ccc(C2COC(c3c(F)cccc3F)=N2)cc1` (stereo not drawn), the figures for the mortality at 500 ppm in assay [1], in assay [2] and in assay [4] were 35%, 100% and 0%, respectively. Further, the LC50 in assay [3] worked out at 0.001 µg/mL (≈ 0.0033 µM).
On the same counts, the results for `CN(C)c1ccc(C2COC(c3c(F)cccc3F)=N2)cc1` (stereo not drawn) are 0%, 85%, 0% and 10 µg/mL (≈ 33.1 µM).
On the same counts, the results for `COc1cc(C(C)(C)C)ccc1C1COC(c2c(F)cccc2F)=N1` (stereo not drawn) are 85%, 100%, 35% and 0.001 µg/mL (≈ 0.0029 µM).
On the same counts, the results for `CCCCOc1cc(F)ccc1C1COC(c2c(F)cccc2F)=N1` (stereo not drawn) are 85%, 60%, 100% and less than 0.001 µg/mL.
Consider `CCc1ccccc1C1COC(c2c(F)cccc2F)=N1` (stereo not drawn), for which the mortality at 500 ppm in assay [1] came out at 0%; in assay [2] it was 0%; in assay [4], 60%. For the same molecule, the LC50 in assay [3] came to 1 µg/mL (≈ 3.48 µM).
Turning to `Fc1cccc(F)c1C1=NC(c2ccc(C(F)(F)F)cc2)CO1` (stereo not drawn), the mortality at 500 ppm in assay [1] came to 85%; in assay [2] it was 100%; in assay [4], 60%. In assay [3], the LC50 is 0.01 µg/mL (≈ 0.0306 µM).
For `Fc1cccc(C2COC(c3c(F)cccc3F)=N2)c1` (stereo not drawn) the same measures were 0%, 0%, 60% and 1 µg/mL (≈ 3.61 µM).
Regarding `CCCCCCOc1cc(C(C)(C)C)ccc1C1COC(c2c(F)cccc2F)=N1` (stereo not drawn), the mortality at 500 ppm in assay [1] was 100%; in assay [2] it was 10%; in assay [4] it was 60%. In addition, in assay [3], the LC50 stood at 0.1 µg/mL (≈ 0.241 µM).
On the same counts, the results for `CCCCOc1ccc(C2COC(c3c(F)cccc3F)=N2)cc1` (stereo not drawn) are 0%, 100%, 0% and less than 0.001 µg/mL.
As to `CCCCCCCCc1ccc(C2COC(c3c(F)cccc3F)=N2)cc1` (stereo not drawn), the mortality at 500 ppm in assay [1] stood at 85%; in assay [2] it was 100%; in assay [4] it was 0%. Further, the LC50 in assay [3] is less than 0.001 µg/mL.
For `CCCCCCc1ccc(C2COC(c3c(F)cccc3F)=N2)cc1Cl` (stereo not drawn) the same measures were 0%, 0%, 0% and 0.1 µg/mL (≈ 0.265 µM).
With `CCCCCCCCc1ccc(C2COC(c3c(F)cccc3F)=N2)c(F)c1` (stereo not drawn), the mortality at 500 ppm was 100% in assay [1], 100% in assay [2] and 0% in assay [4]. The LC50 in assay [3] is less than 0.001 µg/mL.
As to `COc1cc(Cl)ccc1C1COC(c2c(F)cccc2F)=N1` (stereo not drawn), the mortality at 500 ppm in assay [1] came to 10%; in assay [2] it was 100%; in assay [4], 100%. Further, the LC50 in assay [3] was found to be 0.1 µg/mL (≈ 0.309 µM).
Take `CCc1cccc(C2COC(c3c(F)cccc3F)=N2)c1` (stereo not drawn): the mortality at 500 ppm in assay [1] was determined as 0%; in assay [2], 0%; in assay [4], 60%. The LC50 in assay [3] worked out at 10 µg/mL (≈ 34.8 µM).
In the case of `Fc1cccc(F)c1C1=NC(c2ccc(Cl)c(Cl)c2)CO1` (stereo not drawn), the mortality at 500 ppm stood at 60% in assay [1], 100% in assay [2] and 0% in assay [4]. The LC50 in assay [3] stood at 0.1 µg/mL (≈ 0.305 µM).
On the same counts, the results for `CCCCCCCCCCCCc1ccc(C2COC(c3c(F)cccc3F)=N2)cc1` (stereo not drawn) are 100%, 85%, 0% and less than 0.001 µg/mL.
On the same counts, the results for `CCCCCCCCc1ccc(C2COC(c3c(F)cccc3F)=N2)c(Cl)c1` (stereo not drawn) are 85%, 100%, 0% and less than 0.001 µg/mL.
On the same counts, the results for `Cc1cc(Cl)ccc1C1COC(c2c(F)cccc2F)=N1` (stereo not drawn) are 10%, 100%, 35% and 0.1 µg/mL (≈ 0.325 µM).
Regarding `CCOc1cc(C(C)C)ccc1C1COC(c2c(F)cccc2F)=N1` (stereo not drawn), the mortality at 500 ppm in assay [1] worked out at 60%; in assay [2] it was 100%; in assay [4], 100%. The LC50 in assay [3] was found to be 0.01 µg/mL (≈ 0.029 µM).
For the molecule `COc1ccc(C2COC(c3c(F)cccc3F)=N2)cc1` (stereo not drawn), the mortality at 500 ppm in assay [1] stood at 0%; in assay [2] it was 85%; in assay [4], 10%. The LC50 in assay [3] is 1 µg/mL (≈ 3.46 µM).
For the molecule `CCc1ccc(C2COC(c3c(F)cccc3F)=N2)c(Cl)c1` (stereo not drawn), the mortality at 500 ppm in assay [1], in assay [2] and in assay [4] was 0% each time. Further, the LC50 in assay [3] was 0.001 µg/mL (≈ 0.00311 µM).
As for `CCOc1cc(F)ccc1C1COC(c2c(F)cccc2F)=N1` (stereo not drawn), the mortality at 500 ppm in assay [1] stood at 85%; in assay [2], 100%; in assay [4], 100%. The LC50 in assay [3] stood at 0.001 µg/mL (≈ 0.00311 µM).
Consider `Cc1ccc(C2COC(c3c(F)cccc3F)=N2)cc1` (stereo not drawn), for which the mortality at 500 ppm in assay [1] was 0%; in assay [2], 100%; in assay [4] it was 60%. In assay [3], the LC50 stood at 0.1 µg/mL (≈ 0.366 µM).
On to `CCCCCCCCCCc1ccc(C2COC(c3c(F)cccc3F)=N2)c(OC)c1` (stereo not drawn), for which the mortality at 500 ppm turned out to be 85% in assay [1], 100% in assay [2] and 10% in assay [4]. Also, the LC50 in assay [3] stood at 0.01 µg/mL (≈ 0.0233 µM).
`CCOc1ccccc1C1COC(c2c(F)cccc2F)=N1` (stereo not drawn): the mortality at 500 ppm was determined as 10% in assay [1], 0% in assay [2] and 100% in assay [4]. Further, in assay [3], the LC50 is 10 µg/mL (≈ 33 µM).
Turning to `Cc1ccccc1C1COC(c2c(F)cccc2F)=N1` (stereo not drawn), the mortality at 500 ppm in assay [1] worked out at 0%; in assay [2] it was 0%; in assay [4], 10%. Besides, the LC50 in assay [3] worked out at 10 µg/mL (≈ 36.6 µM).
Take `COc1ccccc1C1COC(c2c(F)cccc2F)=N1` (stereo not drawn): the mortality at 500 ppm turned out to be 0% in assay [1], 0% in assay [2] and 10% in assay [4]. The LC50 in assay [3] is 10 µg/mL (≈ 34.6 µM).
Take `Fc1cc(Cl)ccc1C1COC(c2c(F)cccc2F)=N1` (stereo not drawn): the results for the mortality at 500 ppm in assay [1], in assay [2] and in assay [4] were 0%, 100% and 0%, respectively. Also, in assay [3], the LC50 was less than 0.001 µg/mL.
Regarding `CCCCOc1cc(C(C)(C)C)ccc1C1COC(c2c(F)cccc2F)=N1` (stereo not drawn), the mortality at 500 ppm in assay [1] worked out at 35%; in assay [2] it was 100%; in assay [4], 0%. Moreover, the LC50 in assay [3] stood at 0.01 µg/mL (≈ 0.0258 µM).
